Test results as given in PubChem BioAssay (NCI).
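In this assay, cells in 96-well plates receive the compound at five concentrations for 48 hours. Endpoints are linearly interpolated between the surrounding concentrations. Here, GI50 denotes the concentration required for 50% inhibition of growth. TGI: total growth inhibition.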

Experiments:
Test in all cases: NCI anticancer screen, dose series, 48 h
SR leukemia = test system: SR leukemia
UO-31 renal = test system: UO-31 renal
SF-268 CNS = test system: SF-268 CNS
SK-OV-3 ovarian = test system: SK-OV-3 ovarian
OVCAR-4 ovarian = test system: OVCAR-4 ovarian
TK-10 renal = test system: TK-10 renal
IGROV1 ovarian = test system: IGROV1 ovarian
UACC-257 melanoma = test system: UACC-257 melanoma
ACHN renal = test system: ACHN renal
NCI/ADR-RES ovarian = test system: NCI/ADR-RES ovarian
EKVX NSCLC = test system: EKVX NSCLC
MDA-MB-231 breast = test system: MDA-MB-231 breast
COLO 205 colon = test system: COLO 205 colon
BT-549 breast = test system: BT-549 breast
SNB-19 CNS = test system: SNB-19 CNS
HOP-62 NSCLC = test system: HOP-62 NSCLC
KM12 colon = test system: KM12 colon
MDA-MB-435 = test system: MDA-MB-435
UACC-62 melanoma = test system: UACC-62 melanoma
OVCAR-5 ovarian = test system: OVCAR-5 ovarian
HS 578T breast = test system: HS 578T breast
A549 NSCLC = test system: A549 NSCLC
SK-MEL-5 melanoma = test system: SK-MEL-5 melanoma
NCI-H23 lung = test system: NCI-H23 lung
LOX IMVI melanoma = test system: LOX IMVI melanoma
SF-295 CNS = test system: SF-295 CNS
SW-620 colon = test system: SW-620 colon
NCI-H460 lung = test system: NCI-H460 lung
SNB-75 CNS = test system: SNB-75 CNS
HCT-116 colon = test system: HCT-116 colon

Cc1ccc(C2CC(c3ccc(NC(=O)Nc4ccccc4)cc3)=NN2c2ccc(S(C)(=O)=O)cc2)cc1 (centres undefined)
GI50 (SR leukemia): 2.59 µM
TGI (SR leukemia): 10.7 µM
GI50 (UO-31 renal): 2.58 µM
TGI (UO-31 renal): 11.2 µM
GI50 (SF-268 CNS): 3.82 µM
TGI (SF-268 CNS): 15.5 µM
GI50 (SK-OV-3 ovarian): 7.96 µM
TGI (SK-OV-3 ovarian): 21.2 µM
GI50 (OVCAR-4 ovarian): 2.84 µM
TGI (OVCAR-4 ovarian): 11.3 µM
GI50 (TK-10 renal): 4.52 µM
TGI (TK-10 renal): 17.1 µM
GI50 (IGROV1 ovarian): 2.91 µM
TGI (IGROV1 ovarian): 11 µM
GI50 (UACC-257 melanoma): 6.15 µM
TGI (UACC-257 melanoma): 22.6 µM
GI50 (ACHN renal): 2.99 µM
TGI (ACHN renal): 9.59 µM
GI50 (NCI/ADR-RES ovarian): 2.5 µM
TGI (NCI/ADR-RES ovarian): 7.74 µM
GI50 (EKVX NSCLC): 2.61 µM
TGI (EKVX NSCLC): 11.1 µM
GI50 (MDA-MB-231 breast): 2.11 µM
TGI (MDA-MB-231 breast): 4.94 µM
GI50 (COLO 205 colon): 1.93 µM
TGI (COLO 205 colon): 3.65 µM
GI50 (BT-549 breast): 2.95 µM
TGI (BT-549 breast): 7.93 µM
GI50 (SNB-19 CNS): 5.53 µM
TGI (SNB-19 CNS): 18.4 µM
GI50 (HOP-62 NSCLC): 6.94 µM
TGI (HOP-62 NSCLC): 21.4 µM
GI50 (KM12 colon): 3.15 µM
TGI (KM12 colon): 10.7 µM
GI50 (MDA-MB-435): 2.94 µM
TGI (MDA-MB-435): 12.3 µM
GI50 (UACC-62 melanoma): 3.19 µM
TGI (UACC-62 melanoma): 13.4 µM
GI50 (OVCAR-5 ovarian): 2.27 µM
TGI (OVCAR-5 ovarian): 6.78 µM
GI50 (HS 578T breast): 3.47 µM
TGI (HS 578T breast): 17.2 µM
GI50 (A549 NSCLC): 3.46 µM
TGI (A549 NSCLC): 16 µM
GI50 (SK-MEL-5 melanoma): 2.34 µM
TGI (SK-MEL-5 melanoma): 6.28 µM
GI50 (NCI-H23 lung): 2.48 µM
TGI (NCI-H23 lung): 8.48 µM
GI50 (LOX IMVI melanoma): 1.68 µM
TGI (LOX IMVI melanoma): 3.07 µM
GI50 (SF-295 CNS): 2.58 µM
TGI (SF-295 CNS): 8.35 µM
GI50 (SW-620 colon): 2.6 µM
TGI (SW-620 colon): 12.1 µM
GI50 (NCI-H460 lung): 2.2 µM
TGI (NCI-H460 lung): 5.6 µM
GI50 (SNB-75 CNS): 4.44 µM
TGI (SNB-75 CNS): 19.3 µM
GI50 (HCT-116 colon): 1.72 µM
